Test results reported in patent publication US20230192617A1, “AZABICYCLIC(THIO)AMIDES AS FUNGICIDAL COMPOUNDS” (Bayer CropScience Aktiengesellschaft, priority 2020, published 2023).

Assays:
[1] = Measurement of Log P values by HPLC on reversed phase columns (EEC directive 79/831 Annex V.A8); format: physicochemical; details: reversed phase HPLC column, method [a]: LC-UV, acidic range, 0.1% formic acid in water and acetonitrile as eluent
Procedure, shortened: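 Reversed-phase HPLC with UV detection per EEC 79/831 Annex V.A8, linear 10–95% acetonitrile gradient. Aqueous eluent: 0.1% formic acid (acidic), 0.001 M ammonium acetate (neutral), or 0.1% phosphoric acid (acidic); multiple values in one method joined by "+".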

Alternaria brassicae = assay: In vivo preventive test on Alternaria brassicae (leaf spot on radish or cabbage); details: 500 ppm of active ingredient, preventive spray on radish or cabbage, evaluated 3 to 4 days after inoculation, read-out: efficacy
Procedure, shortened: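 Young radish or cabbage plants were sprayed with compound dissolved in DMSO/acetone/Tween 80 and diluted in water; controls received solvent only. Inoculation by spraying A. brassicae spore suspension 24 h later, then 3–4 days at 20 °C and 100% relative humidity.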

Botrytis cinerea [2] = assay: In vivo preventive test on Botrytis cinerea (grey mould); details: 500 ppm of active ingredient, preventive spray on gherkin or cabbage, evaluated 4 to 5 days after inoculation, read-out: efficacy
Procedure, shortened: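 Young gherkin or cabbage plants were sprayed with compound in DMSO/acetone/Tween 80 diluted in water, then inoculated 24 hours later with a B. cinerea spore suspension. Incubation lasted 4 to 5 days: gherkin at 17° C., 90% relative humidity; cabbage at 20° C., 100% relative humidity.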

Pyrenophora teres [3] = assay: In vivo preventive test on Pyrenophora teres (net blotch on barley); details: 240 h, 500 ppm of active ingredient, preventive spray on barley, evaluated 10 days after inoculation, read-out: efficacy
Procedure, shortened: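 Young barley plants sprayed preventively with compound formulated in DMSO/acetone/Tween 80 and diluted in water; controls got solvent only. Inoculated 24 hours later with P. teres spore suspension, then held 48 hours at 20° C, 100% RH and 8 days at 20° C, 70-80% RH.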

Sphaerotheca fuliginea = assay: In vivo preventive test on Sphaerotheca fuliginea (powdery mildew on cucurbits); details: Podosphaera fuliginea, 192 h; 500 ppm of active ingredient; preventive spray on gherkin; evaluated 8 days after inoculation; read-out: efficacy
Procedure, shortened: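 Young gherkin plants were sprayed with compound in DMSO/acetone/Tween 80 diluted in water. They were inoculated 24 h later with a spore suspension of Sphaerotheca fuliginea. Plants were then kept for 8 days at 20 °C and 70–80% relative humidity.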

[4] = test system: Colletotrichum lindemuthianum; assay: In vivo preventive test on Colletotrichum lindemuthianum (leaf spot on bean); details: 168 h, 500 ppm of active ingredient, preventive spray on bean, evaluated 7 days after inoculation, read-out: efficacy
Procedure, shortened: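 Young bean plants sprayed with compound in DMSO/acetone/Tween 80 diluted in water; solvent-only controls. Inoculated 24 h later with C. lindemuthianum spore suspension, then kept 24 h at 20 °C/100% RH and 6 days at 20 °C/90% RH.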

Alternaria alternata = Alternaria alternata in vitro cell test; format: cell-based; details: 120 h, 20 ppm of active ingredient, liquid culture, 5 days incubation, spectrometric measurement of mycelium growth, read-out: efficacy (inhibition of fungal growth)
Procedure, shortened: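 Liquid culture assay in which A. alternata spores in medium received DMSO-solubilized compound (final DMSO ≤1%). After 5 days, mycelium growth was measured spectrometrically. Inhibition was calculated against fungicide-free control wells.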

Septoria tritici = assay: B-9. Septoria tritici in vitro cell test; format: cell-based; details: Zymoseptoria tritici, 168 h; 20 ppm of active ingredient; 7 days incubation; liquid culture, absorbance; read-out: efficacy (inhibition of fungal growth)
Procedure, shortened: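 Compounds from DMSO stocks (final DMSO ≤1%) were added to liquid medium containing S. tritici spores to test inhibition of germination and mycelial growth. After 7 days, mycelium growth was read spectrometrically and inhibition derived from absorbance versus fungicide-free control wells.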

Pyrenophora teres [5] = assay: B-10. Pyrenophora teres in vitro cell test; format: cell-based; details: 144 h, 20 ppm of active ingredient, 6 days incubation, liquid culture, absorbance, read-out: efficacy (inhibition of fungal growth)
Procedure, shortened: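 Liquid-culture assay on a P. teres spore suspension with compounds added to the medium from DMSO solutions, final DMSO ≤1%. Mycelium growth read spectrometrically after 6 days. Inhibition calculated from absorbance against untreated control wells.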

Botrytis cinerea [6] = assay: B-11. Botrytis cinerea in vitro cell test; format: cell-based; details: 144 h, 20 ppm of active ingredient, 6 days incubation, liquid culture, absorbance, read-out: efficacy (inhibition of fungal growth)
Procedure, shortened: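 B. cinerea spores were grown in liquid culture with compound (DMSO ≤1% final). Mycelium growth was measured spectrometrically after 6 days, with inhibition taken as absorbance relative to untreated control wells.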

chromatographic logP [1]: 3.85
Compound: Cc1cc(Cl)ccc1C(F)(F)CNC(=O)c1c(Oc2cccc(C(F)(F)F)c2)nnc2c1COCC2 [I-125]
pest or weed control at 500 ppm (Alternaria brassicae): 90 to 100%
pest or weed control at 500 ppm (Botrytis cinerea [2]): 90 to 100%
pest or weed control at 500 ppm (Pyrenophora teres [3]): 70 to 79%
pest or weed control at 500 ppm (Sphaerotheca fuliginea): 90 to 100%
pest or weed control at 500 ppm [4]: 80 to 89%
inhibition at 20 ppm (Alternaria alternata): 90 to 100%
inhibition at 20 ppm (Septoria tritici): 90 to 100%
inhibition at 20 ppm (Pyrenophora teres [5]): 90 to 100%
inhibition at 20 ppm (Botrytis cinerea [6]): 90 to 100%
